Measurements published in patent US8415312B2, “Compound which is a nystatin derivative” (Biosergen AS, priority 2007, dated 2013).
Values after ≈ are worked out from the molar mass of the structure shown. Values joined by “and” are separate entries in the source; they are usually repeats but may differ in a detail not shown here. Equal entries are not always repeated.

Assays:
[1] = tested on: yeasts and filamentous fungi (moulds); assay: Antifungal susceptibility study (1), overall comparison across the test organisms; assay type: cell-based; conditions: for antifungal activity, rank within the series: Tables 7 and 8; for anti-fungal activity compared with Amphotericin B and S44HP: Table 5 MICs
Procedure: The organisms used for susceptibility testing were: Candida albicans ATCC 14053, Cryptococcus humicolus ATCC 9949, Aspergillus niger ATCC 16404 and Fusarium oxysporum VKM F-140 (=CMI, IMI 90473). Organisms were stored on potato dextrose agar […] 50% glycerol solution at -70° C. For short-term storage, stock cultures were stored on agar […] 4° C. The cultures of yeasts were sub-cultured onto Sabouraud dextrose (SAB) agar and incubated for 24 hours at 35° C. (Candida albicans) or for 48 hours at 25° C. (Cryptococcus humicolus) to obtain a freshly grown pure culture. The cultures of moulds were sub-cultured onto potato dextrose agar and incubated for 7 days at 35° C. […] (Fusarium oxysporum) to ensure maximum sporulation. Sterile 96-well flat-bottomed microtitration plates were used for testing. 100 μl of diluted inocula were dispensed into each microdilution well containing 100 μl of the double dilutions of compounds. Drug-free and yeast/mould-free controls were included. Microdilution trays were incubated at 35° C. (Candida albicans and moulds) or 25° C. (Cryptococcus humicolus) without agitation and observed for the presence or absence of visible growth. […] Minimal inhibitory concentrations (MICs) were read at 48 hours.

[2] = tested on: Candida albicans ATCC 14053; assay: Antifungal susceptibility study (1), broth microdilution MIC; assay type: cell-based; conditions: lowest concentration preventing any visible growth, read at 48 hours, 35° C., RPMI 1640 pH 7.0
Method in brief: (§1)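 Broth microdilution in test medium at pH 7.0 with two-fold compound dilutions (DMSO stocks diluted 50-fold into medium), inoculated with freshly grown yeast cultures. Plates were incubated without agitation at 35° C. for C. albicans or 25° C. for C. humicolus. MIC was taken as the concentration with no visible growth, read at 48 hours.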

[3] = tested on: Cryptococcus humicolus ATCC 9949; assay: as above; assay type: cell-based; conditions: lowest concentration preventing any visible growth, read at 48 hours, 25° C., RPMI 1640 pH 7.0
Method in brief: as §1

[4] = tested on: Candida albicans (strain 14053 ATCC); assay: In vivo antifungal activity, kidney burden in infected mice; conditions: day 5, individual mice
Procedure: Male mice of hybrids of first generation (C57B1/6xDBA/2)F1 B6D2F1, weight 20-22 g., received from the Central farm. “Kryukovo” of Russian Academies of Medical Science (RAMS) were used. Animals were maintained in a vivarium in plastic cages (with hardwood bedding in environmentally controlled conditions: 24±1° C., 12/12 hours light/dark cycle) on a standard diet of bricketed forages with easy access to drinking water (ad libitum). After a 2-week quarantine period, healthy animals were used in experimental work.
The solutions were prepared as follows: dry antibiotic substances (5 mg) were mixed with dry sodium deoxycholate (4.1 mg) in a sterile glass vial. 10 mL of phosphate buffer (NaH2PO4—1.59 g; Na2HPO4—0.96 g; H2O—to 100 mL) was added to the mix and the suspension was immediately subjected to vigorous shaking for 10 minutes until homogeneous suspensions were formed.
Animals were infected intravenously with Candida albicans culture at a dose of 1.0 million CFU/mouse (volume 0.1 mL). 30 minutes after infection, the antifungal agents were introduced intravenously into the mice at various doses in a volume of 0.2 mL (at a rate of 0.2 mL/30 second). Each dose was administered daily for four days including the day of infection (0, 1, 2 and 3 days).
As a control, there was a group of untreated mice (infected in the same way with Candida albicans). Also there was a “placebo” group of non-infected animals which were intravenously administered (in the same volume as antifungal agent preparations) 0.2 mL of solvent (phosphatic buffer +5% glucose (1:1)).
On the 5th day of experiment, mice were weighed and euthanized (killed) by a cervical dislocation. Then, in sterile conditions, the Candida albicans burden of each mouse was determined by counting of viable homogenates from the kidneys. The kidneys were removed aseptically and weighed, then pounded in porcelain mortars with sterile corundum. Dilutions of the resulting suspensions were prepared and sowed on Petri dishes with agar Saburo, incubated for 24 hours at a temperature of 35° C. Developed colonies of Candida albicans were then counted and their quantity calculated on the basis of 1 g of kidney tissue.

erythrocytes = assay: In vitro toxicity study, haemolysis (Tables 11 and 12); assay type: cell-based, horse; conditions: for Haemolysis of erythrocytes, Mean ± SE: 5 μg/mL (Table 11); for Haemolysis of erythrocytes: 5 μg/mL, individual blood samples # 1-3 (Table 11)
Solubility in 5% glucose = assay type: physicochemical
human blood erythrocytes = assay: In vitro toxicity study, haemolysis (Table 10); assay type: cell-based; conditions: for Haemolysis of human blood erythrocytes: individual blood samples # 1-3, listed as Amp B
[5] = 0.08 mg/kg × 4/24 i.v., colonies per 1 g of kidney tissue
[6] = 0.8 mg/kg × 4/24 i.v., colonies per 1 g of kidney tissue
[7] = 2.5 mg/kg × 4/24 i.v., colonies per 1 g of kidney tissue
[8] = 5 mg/kg × 4/24 i.v., Candida albicans colonies per 1 g of kidney tissue

Row | Compound | antifungal activity, rank within the series [1] | MIC Candida albicans ATCC 14053 [2] | MIC Cryptococcus humicolus ATCC 9949 [3] | anti-fungal activity compared with Amphotericin B and S44HP [1] | Number of Colonies [4, 5] | Number of Colonies [4, 6] | Number of Colonies [4, 7] | Number of Colonies [4, 8] | Haemolysis of erythrocytes, Mean ± SE (erythrocytes) | Haemolysis of erythrocytes (erythrocytes) | Number of Colonies ([4]; 0.08 mg/kg × 4/24 i.v., colonies per 1 g of kidney tissue, listed as Amp B) | Number of Colonies ([4]; 0.8 mg/kg × 4/24 i.v., colonies per 1 g of kidney tissue, listed as Amp B) | Number of Colonies ([4]; 2.5 mg/kg × 4/24 i.v., colonies per 1 g of kidney tissue, listed as Amp B) | Haemolysis of erythrocytes (erythrocytes; listed as Amp B) | solubility in 5% glucose (Solubility in 5% glucose) | Haemolysis of human blood erythrocytes, MEAN ± SE (human blood erythrocytes; 2 μg/mL) | Haemolysis of human blood erythrocytes (human blood erythrocytes; 2 μg/mL) | Haemolysis of human blood erythrocytes, MEAN ± SE (human blood erythrocytes; 5 μg/mL) | Haemolysis of human blood erythrocytes (human blood erythrocytes; 5 μg/mL)
1 | CC1C=CC=CC=CC=CC=CC=CC=CC(OC2OC(C)C(O)C(N)C2O)CC2OC(O)(CC(O)C(O)CCC(O)CC(O)CC(O)CC(=O)OC(C)C(C)C1O)CC(O)C2C.NC(CCC(=O)O)C(=O)O [Compound 29, Compound 1 L-glutamate] | most active salt of Compound 1 | 1 µg/mL | 1 µg/mL | – | – | – | – | – | – | – | – | – | – | – | – | – | – | – | –
2 | CC1C=CC=CC=CC=CC=CC=CC=CC(OC2OC(C)C(O)C(N)C2O)CC2OC(O)(CC(O)C(O)CCC(O)CC(O)CC(O)CC(=O)OC(C)C(C)C1O)CC(O)C2C(=O)NCCCN(C)C (stereo not shown) [Compound 11, S44HP DMAP Amide] | – | 1 µg/mL (≈ 0.992 µM) | 1 µg/mL (≈ 0.992 µM) | comparable anti-fungal activity to Amphotericin B and S44HP | 3.0 × 10^4 and 2.7 × 10^4 and 1.5 × 10^4 | 1.2 × 10^3 and 3.0 × 10^3 and 2.5 × 10^3 | <10^1 and 1.0 × 10^1 (2×) | 0 (2×) and <10^1 | 3.2 ± 0.1% | 3% and 3.4% and 3.3% | – | – | – | – | – | – | – | – | –
3 | CC1C=CC=CC=CC=CC=CC=CC=CC(OC2OC(C)C(O)C(N)C2O)CC2OC(O)(CC(O)C(O)CCC(O)CC(O)CC(O)CC(=O)OC(C)C(C)C1O)CC(O)C2C (stereo not shown) [Compound 1] | – | 1 µg/mL (≈ 1.12 µM) | 1 µg/mL (≈ 1.12 µM) | comparable anti-fungal activity to Amphotericin B and S44HP | 2.4 × 10^4 (2×) and 2.8 × 10^4 | 2.5 × 10^3 and 1.2 × 10^3 and 5.0 × 10^3 | 2.0 × 10^1 (2×) and 1.0 × 10^1 | 1.0 × 10^1 (2×) and 0 | – | – | – | – | – | – | – | – | – | – | –
4 | C[C@@H]1[C@H](O)[C@@H](C)/C=C/C=C/C=C/C=C/C=C/C=C/C=C/[C@H](O[C@@H]2O[C@H](C)[C@@H](O)[C@H](N)[C@@H]2O)C[C@@H]2O[C@](O)(C[C@@H](O)C[C@@H](O)[C@H](O)CC[C@@H](O)C[C@@H](O)CC(=O)O[C@H]1C)C[C@H](O)[C@H]2C(=O)O [Amphotericin B, reference compound] | – | 1 µg/mL (≈ 1.08 µM) | 1 µg/mL (≈ 1.08 µM) | – | – | – | – | – | 39.7 ± 1.2% | – | 1.8 × 10^4 and 2.6 × 10^4 and 3.4 × 10^4 | 2 × 10^3 and 6 × 10^3 and 4 × 10^3 | 1.0 × 10^3 and 2.2 × 10^2 and 2.8 × 10^2 | 39% and 38% and 42% | < 1000 µg/mL | 6.1 ± 1.0% | 4.4% and 5.9% and 8.0% | 30.3 ± 0.6% | 30% and 29.5% and 31.5%
5 | CC1O[C@@H](O[C@H]2/C=C/C=C/C=C/C=C/C=C/C=C/C=C/[C@H](C)[C@@H](O)[C@@H](C)[C@H](C)OC(=O)C[C@H](O)C[C@H](O)C[C@H](O)CC[C@@H](O)[C@H](O)C[C@]3(O)C[C@H](O)[C@@H](C)[C@H](C2)O3)[C@H](O)C(NC(=O)[C@@H](N)CCCCN)[C@@H]1O (stereo partly drawn) [Compound 51, N-L-Lysyl-Compound 1] | most active derivative in this series with antifungal activity slightly higher than the parent antibiotic | 1 µg/mL (≈ 0.978 µM) | 1 µg/mL (≈ 0.978 µM) | – | – | – | – | – | – | – | – | – | – | – | – | – | – | – | –
